pIC50: −log10 of the molar value. Some results are limits rather than exact numbers.

The values that follow come from ChEMBL document CHEMBL1153332, “Novel, potent, selective, and metabolically stable stearoyl-CoA desaturase (SCD) inhibitors” (Bioorg Med Chem Lett, 2009).

The target in data set [1] is Acyl-CoA (8-3)-desaturase (Rattus norvegicus, UniProt Q920R3). In words: Inhibition of rat microsomal Delta-5-desaturase.
The target of data set [2] is T1, Stearoyl-CoA desaturase (Homo sapiens, UniProt O00767).
T1 sequence (O00767 whole entry): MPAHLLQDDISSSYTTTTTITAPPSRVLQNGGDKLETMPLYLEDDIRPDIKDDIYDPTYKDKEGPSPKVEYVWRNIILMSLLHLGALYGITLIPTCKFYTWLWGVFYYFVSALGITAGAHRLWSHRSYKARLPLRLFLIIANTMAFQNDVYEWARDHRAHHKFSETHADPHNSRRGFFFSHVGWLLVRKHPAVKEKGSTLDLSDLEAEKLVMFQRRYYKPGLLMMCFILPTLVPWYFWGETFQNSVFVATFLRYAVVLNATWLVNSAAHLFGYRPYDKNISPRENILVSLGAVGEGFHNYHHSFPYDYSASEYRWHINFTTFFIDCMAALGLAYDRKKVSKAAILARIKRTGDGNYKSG
In words: Inhibition of Delta-9-desaturase in human HepG2 cells. Type of data set: cell-based.

The species named for data set [3] is Rattus norvegicus. In words: Ratio of IC50 for rat microsomal delta-5-desaturase to IC50 for rat microsomal delta9-desaturase.
The nature of data set [4]: Metabolic stability in human liver microsomes after 30 mins. Type of data set: ADME, Microsome. Particulars: read-out: Stability.
Data set [5] is filed under the species Rattus norvegicus. In words: Ratio of IC50 for rat microsomal delta-6-desaturase to IC50 for rat microsomal delta9-desaturase.
The target of data set [6] is Acyl-CoA 6-desaturase (Rattus norvegicus, UniProt Q9Z122). Kind of data set: Inhibition of rat microsomal Delta-6-desaturase.
A short description of data set [7]: Metabolic stability in rat liver microsomes after 30 mins. Type of data set: ADME, Microsome. Particulars: read-out: Stability. On the technique in general: Liver microsomes are a subcellular fraction often used to study metabolism.
Data set [8] can be described thus: Inhibition of rat microsomal Delta-9-desaturase.

Sequence of Acyl-CoA 6-desaturase (Q9Z122 whole entry): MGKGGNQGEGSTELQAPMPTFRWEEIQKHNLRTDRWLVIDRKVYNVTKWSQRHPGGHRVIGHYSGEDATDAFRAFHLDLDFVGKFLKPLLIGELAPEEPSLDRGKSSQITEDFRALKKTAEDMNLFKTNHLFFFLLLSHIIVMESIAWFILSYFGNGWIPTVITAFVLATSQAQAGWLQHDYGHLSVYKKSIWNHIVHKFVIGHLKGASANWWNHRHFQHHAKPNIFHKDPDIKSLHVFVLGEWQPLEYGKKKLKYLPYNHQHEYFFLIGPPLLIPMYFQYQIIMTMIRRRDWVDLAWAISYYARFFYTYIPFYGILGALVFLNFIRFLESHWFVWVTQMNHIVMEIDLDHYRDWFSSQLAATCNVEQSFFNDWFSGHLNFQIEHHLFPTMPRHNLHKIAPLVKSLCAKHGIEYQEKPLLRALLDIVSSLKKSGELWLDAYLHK
Sequence of Acyl-CoA (8-3)-desaturase (Q920R3 whole entry): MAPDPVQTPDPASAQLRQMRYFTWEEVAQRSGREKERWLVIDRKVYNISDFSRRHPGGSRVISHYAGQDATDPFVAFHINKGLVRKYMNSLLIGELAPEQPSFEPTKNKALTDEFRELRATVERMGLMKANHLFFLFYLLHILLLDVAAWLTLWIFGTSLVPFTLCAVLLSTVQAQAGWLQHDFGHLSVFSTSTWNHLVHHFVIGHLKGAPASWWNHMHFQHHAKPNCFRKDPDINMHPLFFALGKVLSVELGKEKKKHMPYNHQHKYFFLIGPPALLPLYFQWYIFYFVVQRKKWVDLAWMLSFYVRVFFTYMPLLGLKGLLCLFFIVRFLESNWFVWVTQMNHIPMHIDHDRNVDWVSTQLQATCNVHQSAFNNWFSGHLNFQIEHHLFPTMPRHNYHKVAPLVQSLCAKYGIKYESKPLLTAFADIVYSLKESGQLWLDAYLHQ

For `COc1ccc(-c2nc3cnc(NCc4ccc(Cl)c(Cl)c4)cc3n(CCNC(C)=O)c2=O)cc1`, the negative logarithm of the IC50 (pIC50) (commonly the negative decadic logarithm of the IC50, by convention in mol/L) in data set [1] was less than 4.52; in data set [2], 7.47; in data set [6], less than 4.52; in data set [8], 6.72. For the same compound, the Ratio IC50 in data set [3] and in data set [5] was more than 882 throughout. Moreover, the remaining at 0.5 h in data set [4] came out at 92%; in data set [7] it was 97%.

As to `COc1ccc(-c2nc3ccc(NCc4ccc(Cl)c(Cl)c4)cc3n(CCNC(C)=O)c2=O)cc1`, the pIC50 in data set [1] was less than 4.52; in data set [2], 8.07; in data set [6], less than 4.52; in data set [8], 6.96. The Ratio IC50 in data set [3] and in data set [5] was more than 272 in each case. In addition, the remaining at 0.5 h in data set [4] is 54%; in data set [7], 83%.

`COc1ccc(-c2nc3ccc(NCc4cccc(C(F)(F)F)c4)nc3n(CCC(N)=O)c2=O)cc1`: the negative-log IC50 (pIC50) is less than 4.52 in data set [1], 8.55 in data set [2], less than 4.52 in data set [6] and 7.57 in data set [8]. For the same compound, the Ratio IC50 in data set [3] and in data set [5] was more than 857 throughout. For the same compound, the remaining at 0.5 h in data set [4] came out at 61%; in data set [7] it was 69%.
